Measured values reported in EP4786487A1, “PEPTIDE” (Peptidream Inc, priority 2023, dated 2025).
Starred links: 1 amine or outer side, 2 acyl side, 3 side chain; linkers in the order of their positions; H or OH if unused. Positions of bridges follow the written chain, without caps; N, C: chain ends. Non-standard residues stand in square brackets, D forms with d. Residues, ends and D or L forms follow the SMILES beside them. *: point of attachment. Phe(3-OCH2COOH) = N[C@@H](Cc1cccc(OCC(=O)O)c1)C(=O)O; Phe(4-COOH) = N[C@@H](Cc1ccc(C(=O)O)cc1)C(=O)O; Trp(7-aza) = N[C@@H](Cc1c[nH]c2ncccc12)C(=O)O; Piperazinyl(4-CH2COOH) = O=C(O)CN1CCN(*)CC1; Gly(N(CH2)3COOH) = O=C(O)CCCNCC(=O)O; NMe3Pal = CN[C@@H](Cc1cccnc1)C(=O)O; X1 = CCCCCCC[C@H](N[*:1])C(=O)[*:2]; NMeF = CN[C@@H](Cc1ccccc1)C(=O)O; 4Pal = N[C@@H](Cc1ccncc1)C(=O)O; hSer = N[C@@H](CCO)C(=O)O; NMeA = CN[C@@H](C)C(=O)O; Sar = CNCC(=O)O; Propyl = CCC*; X17 = CCCCC*; nBu = CCCC*

Columns and labels:
Format in all cases: cell-based
Myostatin [1] = biological target: T1, Myostatin (Homo sapiens, UniProt O14793); experiment: Reporter gene assay for myostatin signaling in HepG2 cell line, Evaluation Procedure (1), myostatin inhibition; conditions: Method A: Myostatin 10 ng/mL; read-out: IC50 (Luciferase) Myostatin HepG2
T1 construct: active myostatin (also called mature myostatin) is a homodimer consisting of two C-terminal growth factor domains; purchased R&D systems 788-G8/CF
T1 sequence (O14793 267-375): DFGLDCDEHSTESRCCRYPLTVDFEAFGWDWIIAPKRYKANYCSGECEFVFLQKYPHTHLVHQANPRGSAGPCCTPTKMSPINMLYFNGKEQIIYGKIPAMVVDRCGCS
Outline: (§1)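 IC50 derived from One-Glo luciferase luminescence after 20–24 h at 37 °C. Peptides titrated 4-fold at 0.006–100 nmol/L against myostatin or 0.12–2000 nmol/L against GDF-11 in HepG2 cells carrying a transfected CAGA12-luciferase reporter, kept in 0.1% BSA EMEM.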

Myostatin [2] = experiment: as above; conditions: Method A; GDF-11 IC50 versus Myostatin IC50
Outline: as §1

GDF-11 = biological target: T2, GDF-11 (Homo sapiens, UniProt O95390); experiment: Reporter gene assay for myostatin signaling in HepG2 cell line, Evaluation Procedure (1), GDF-11 inhibition; conditions: Method A: GDF-11 10 ng/mL; read-out: IC50 (Luciferase) GDF-11 HepG2
T2 construct: purchased R&D systems 1958-GD-G8/CF
T2 sequence (O95390 299-407): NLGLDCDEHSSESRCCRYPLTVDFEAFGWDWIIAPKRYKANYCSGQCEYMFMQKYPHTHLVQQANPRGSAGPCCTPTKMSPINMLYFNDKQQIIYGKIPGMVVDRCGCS
Outline: as §1

Row | SMILES | IC50 (Myostatin [1]) | Selectivity (Myostatin [2]) | IC50 (GDF-11)
1 | CCCCCCC[C@@H]1NC(=O)[C@H](Cc2ccccc2)N(C)C(=O)[C@H](CCCNC(=N)N)NC(=O)[C@H](Cc2ccc(C(=O)O)cc2)NC(=O)[C@H](Cc2cccc(OCC(=O)O)c2)NC(=O)CN(C)C(=O)[C@H]([C@@H](C)CC)NC(=O)[C@H](Cc2ccccc2)NC(=O)[C@H](Cc2ccc(O)cc2)NC(=O)[C@H](Cc2c[nH]c3ccccc23)NC(=O)[C@H](C)NC(=O)[C@H](C)NC(=O)CSC[C@H](C(=O)O)NC(=O)[C@H](Cc2ccccc2)N(C)C(=O)[C@H](C)N(C)C1=O [Myostatin_99_v209] ({CH2CO}-AAWYFI[Sar][Phe(3-OCH2COOH)][Phe(4-COOH)]R[NMeF][X1][NMeA][NMeF][dC]-OH; thioether N-15) | 5.4 nM | 147 | 794 nM
2 | CCCCCCC[C@@H]1NC(=O)[C@H](Cc2cccnc2)N(C)C(=O)[C@H](CCCNC(=N)N)NC(=O)[C@H](Cc2ccc(C(=O)O)cc2)NC(=O)[C@H](Cc2cccc(OCC(=O)O)c2)NC(=O)CN(C)C(=O)[C@H]([C@@H](C)CC)NC(=O)[C@H](Cc2ccccc2)N(C)C(=O)[C@H](Cc2ccc(O)cc2)NC(=O)[C@H](Cc2c[nH]c3ccccc23)NC(=O)[C@H](C)NC(=O)[C@H](C)NC(=O)CSC[C@H](C(=O)O)NC(=O)[C@H](Cc2ccccc2)N(C)C(=O)[C@H](C)N(C)C1=O [Myostatin_99_v211] ({CH2CO}-AAWY[NMeF]I[Sar][Phe(3-OCH2COOH)][Phe(4-COOH)]R[NMe3Pal][X1][NMeA][NMeF][dC]-OH; thioether N-15) | 1.1 nM | 211 | 232 nM
3 | CCCCCCC[C@@H]1NC(=O)[C@H](Cc2ccccc2)NC(=O)[C@H](CCCNC(=N)N)NC(=O)[C@H](Cc2ccc(C(=O)O)cc2)NC(=O)[C@H](Cc2cccc(OCC(=O)O)c2)NC(=O)CN(C)C(=O)[C@H]([C@@H](C)CC)NC(=O)[C@H](Cc2ccccc2)N(C)C(=O)[C@H](Cc2ccc(O)cc2)NC(=O)[C@H](Cc2c[nH]c3ccccc23)NC(=O)[C@H](C)NC(=O)[C@H](C)NC(=O)CSC[C@H](C(=O)O)NC(=O)[C@H](Cc2ccccc2)N(C)C(=O)[C@H](C)N(C)C1=O [Myostatin_99_v212] ({CH2CO}-AAWY[NMeF]I[Sar][Phe(3-OCH2COOH)][Phe(4-COOH)]RF[X1][NMeA][NMeF][dC]-OH; thioether N-15) | 3.3 nM | 84 | 278 nM
4 | CCCCCCC[C@@H]1NC(=O)[C@H](Cc2ccccc2)N(C)C(=O)[C@H](CCCNC(=N)N)NC(=O)[C@H](Cc2ccc(C(=O)O)cc2)NC(=O)[C@H](Cc2cccc(OCC(=O)O)c2)NC(=O)CN(C)C(=O)[C@H]([C@@H](C)CC)NC(=O)[C@H](Cc2ccccc2)N(C)C(=O)[C@H](Cc2ccc(O)cc2)NC(=O)[C@H](Cc2c[nH]c3ccccc23)NC(=O)[C@H](C)NC(=O)[C@H](C)NC(=O)CSC[C@H](C(=O)O)NC(=O)[C@H](Cc2cccnc2)N(C)C(=O)[C@H](C)N(C)C1=O [Myostatin_99_v214] ({CH2CO}-AAWY[NMeF]I[Sar][Phe(3-OCH2COOH)][Phe(4-COOH)]R[NMeF][X1][NMeA][NMe3Pal][dC]-OH; thioether N-15) | 6.6 nM | 201 | 1320 nM
5 | CCCCCCC[C@@H]1NC(=O)[C@H](Cc2ccccc2)N(C)C(=O)[C@H](CCCNC(=N)N)NC(=O)[C@H](Cc2ccc(C(=O)O)cc2)NC(=O)[C@H](Cc2cccc(OCC(=O)O)c2)NC(=O)CN(C)C(=O)[C@H]([C@@H](C)CC)NC(=O)[C@H](Cc2ccccc2)N(C)C(=O)[C@H](Cc2ccc(O)cc2)NC(=O)[C@H](Cc2c[nH]c3ccccc23)NC(=O)[C@H](C)NC(=O)[C@H](C)NC(=O)CSC[C@@H](C(=O)O)NC(=O)[C@H](Cc2ccccc2)N(C)C(=O)[C@H](C)N(C)C1=O [Myostatin_99_v215] ({CH2CO}-AAWY[NMeF]I[Sar][Phe(3-OCH2COOH)][Phe(4-COOH)]R[NMeF][X1][NMeA][NMeF]C-OH; thioether N-15) | 1.9 nM | 106 | 202 nM
6 | CCCCCCC[C@@H]1NC(=O)[C@H](Cc2ccccc2)N(C)C(=O)[C@H](CCCNC(=N)N)NC(=O)[C@H](Cc2ccc(C(=O)O)cc2)NC(=O)[C@H](Cc2cccc(OCC(=O)O)c2)NC(=O)CN(C)C(=O)[C@H]([C@@H](C)CC)NC(=O)[C@H](Cc2ccccc2)N(C)C(=O)[C@H](Cc2ccc(O)cc2)NC(=O)[C@H](Cc2c[nH]c3ccccc23)NC(=O)[C@H](C)NC(=O)[C@H](CC(N)=O)NC(=O)CSC[C@H](C(=O)O)NC(=O)[C@H](Cc2ccccc2)N(C)C(=O)[C@H](C)N(C)C1=O [Myostatin_99_v217] ({CH2CO}-NAWY[NMeF]I[Sar][Phe(3-OCH2COOH)][Phe(4-COOH)]R[NMeF][X1][NMeA][NMeF][dC]-OH; thioether N-15) | 3 nM | 232 | 696 nM
7 | CCCCCCC[C@@H]1NC(=O)[C@H](Cc2ccccc2)N(C)C(=O)[C@H](CCCNC(=N)N)NC(=O)[C@H](Cc2ccc(O)cc2)NC(=O)[C@H](Cc2cccc(OCC(=O)O)c2)NC(=O)CN(C)C(=O)[C@H]([C@@H](C)CC)NC(=O)[C@H](Cc2ccccc2)N(C)C(=O)[C@H](Cc2ccc(O)cc2)NC(=O)[C@H](Cc2c[nH]c3ncccc23)NC(=O)[C@@H](CCC(=O)O)NC(=O)[C@H](C)NC(=O)CSC[C@H](C(=O)O)NC(=O)[C@H](Cc2ccccc2)N(C)C(=O)[C@H](C)N(C)C1=O [Myostatin_99_v219] ({CH2CO}-A[dE][Trp(7-aza)]Y[NMeF]I[Sar][Phe(3-OCH2COOH)]YR[NMeF][X1][NMeA][NMeF][dC]-OH; thioether N-15) | 2.7 nM | 116 | 313 nM
8 | CCCCCCC[C@@H]1NC(=O)[C@H](Cc2ccccc2)N(C)C(=O)[C@H](CCCNC(=N)N)NC(=O)[C@H](Cc2ccc(C(=O)O)cc2)NC(=O)[C@H](Cc2cccc(OCC(=O)O)c2)NC(=O)CN(C)C(=O)[C@H]([C@@H](C)CC)NC(=O)[C@H](Cc2ccccc2)N(C)C(=O)[C@H](Cc2ccc(O)cc2)NC(=O)[C@H](Cc2c[nH]c3ccccc23)NC(=O)[C@H](C)NC(=O)[C@H](C)NC(=O)CSC[C@H](C(=O)N2CCN(CC(=O)O)CC2)NC(=O)[C@H](Cc2ccccc2)N(C)C(=O)[C@H](C)N(C)C1=O [Myostatin_99_v221] ({CH2CO}-AAWY[NMeF]I[Sar][Phe(3-OCH2COOH)][Phe(4-COOH)]R[NMeF][X1][NMeA][NMeF][dC]-{Piperazinyl(4-CH2COOH)}; thioether N-15) | 0.9 nM | 80 | 72 nM
9 | CCCCCOC[C@@H]1NC(=O)[C@H](Cc2ccccc2)N(C)C(=O)[C@H](CCCNC(=N)N)NC(=O)[C@H](Cc2ccc(C(=O)O)cc2)NC(=O)[C@H](Cc2ccncc2)NC(=O)CN(C)C(=O)[C@H]([C@@H](C)CC)NC(=O)[C@H](Cc2ccccc2)N(C)C(=O)[C@H](Cc2ccc(O)cc2)NC(=O)[C@H](Cc2c[nH]c3ccccc23)NC(=O)[C@H](C)NC(=O)CN(CCCC(=O)O)C(=O)CSC[C@H](C(=O)O)NC(=O)[C@H](Cc2ccccc2)N(C)C(=O)[C@H](C)N(C)C1=O [Myostatin_99_v226] ({CH2CO}-[Gly(N(CH2)3COOH)]AWY[NMeF]I[Sar][4Pal][Phe(4-COOH)]R[NMeF]S(X17)[NMeA][NMeF][dC]-OH; thioether N-15) | 10.2 nM | 391 | 3990 nM
10 | CCCCOCC[C@@H]1NC(=O)[C@H](Cc2ccccc2)N(C)C(=O)[C@H](CCCNC(=N)N)NC(=O)[C@H](Cc2ccc(C(=O)O)cc2)NC(=O)[C@H](Cc2ccncc2)NC(=O)CN(C)C(=O)[C@H]([C@@H](C)CC)NC(=O)[C@H](Cc2ccccc2)N(C)C(=O)[C@H](Cc2ccc(O)cc2)NC(=O)[C@H](Cc2c[nH]c3ccccc23)NC(=O)[C@H](C)NC(=O)CN(CCCC(=O)O)C(=O)CSC[C@H](C(=O)O)NC(=O)[C@H](Cc2ccccc2)N(C)C(=O)[C@H](C)N(C)C1=O [Myostatin_99_v227] ({CH2CO}-[Gly(N(CH2)3COOH)]AWY[NMeF]I[Sar][4Pal][Phe(4-COOH)]R[NMeF][hSer](nBu)[NMeA][NMeF][dC]-OH; thioether N-15) | 20.8 nM | 33 | 683 nM
11 | CCCOCC[C@@H]1NC(=O)[C@H](Cc2ccccc2)N(C)C(=O)[C@H](CCCNC(=N)N)NC(=O)[C@H](Cc2ccc(C(=O)O)cc2)NC(=O)[C@H](Cc2ccncc2)NC(=O)CN(C)C(=O)[C@H]([C@@H](C)CC)NC(=O)[C@H](Cc2ccccc2)N(C)C(=O)[C@H](Cc2ccc(O)cc2)NC(=O)[C@H](Cc2c[nH]c3ccccc23)NC(=O)[C@H](C)NC(=O)CN(CCCC(=O)O)C(=O)CSC[C@H](C(=O)O)NC(=O)[C@H](Cc2ccccc2)N(C)C(=O)[C@H](C)N(C)C1=O [Myostatin_99_v230] ({CH2CO}-[Gly(N(CH2)3COOH)]AWY[NMeF]I[Sar][4Pal][Phe(4-COOH)]R[NMeF][hSer](Propyl)[NMeA][NMeF][dC]-OH; thioether N-15) | 57.1 nM | 147 | 8370 nM
